According to patent US20070197573A1, “Compositions and methods in the treatment of bone metabolic disorders” (priority 2005, published 2007):

What was measured:
μ opioid receptor = μ opioid receptor (Homo sapiens, UniProt P35372); conditions: cited from earlier work
delta receptors = delta receptors (Homo sapiens, UniProt P41143); conditions: in vitro; cited from earlier work
human osteoblasts = conditions: in vitro treatment; cited from earlier work
[1] = cited from earlier work
[2] = system: sarcoma-induced bone loss; assay: Murine bone cancer model (sarcoma cells injected into femur), radiographic bone loss, fracture and pain under sustained morphine infusion; format: in vivo, mice
sarcoma cells = assay: Tumor growth in vitro; format: cell-based
Description: (§1) The peripheral opioid antagonists according to the invention provide a conjunctive therapy for managing bone metabolism while opiates are in use. Specific data describing the metabolic effects of opiates on bone metabolism are provided in the examples.

osteoclasts = assay: Osteoclast count by TRAP staining in metaphysis of distal femur; format: in vivo, mice
Description: Previous studies have shown that osteolytic cancers, such as the sarcoma cell line used in these studies, upregulate osteoclasts within the bone. To determine whether the enhanced morphine-induced bone loss is mediated through further upregulation of osteoclasts, osteoclasts were stained and counted within the metaphysis of the distal head of the femur using tartrate resistant acid phosphatase (TRAP) staining.

IL-1β = IL-1β level within the bone after sustained morphine infusion; format: in vivo, mice; conditions: sarcoma-induced
Description: as §1

[3] = drug-dependent mice; cited from earlier work
[4] = sustained morphine administration

μ opioid receptor, sequence (P35372 whole entry, species assumed): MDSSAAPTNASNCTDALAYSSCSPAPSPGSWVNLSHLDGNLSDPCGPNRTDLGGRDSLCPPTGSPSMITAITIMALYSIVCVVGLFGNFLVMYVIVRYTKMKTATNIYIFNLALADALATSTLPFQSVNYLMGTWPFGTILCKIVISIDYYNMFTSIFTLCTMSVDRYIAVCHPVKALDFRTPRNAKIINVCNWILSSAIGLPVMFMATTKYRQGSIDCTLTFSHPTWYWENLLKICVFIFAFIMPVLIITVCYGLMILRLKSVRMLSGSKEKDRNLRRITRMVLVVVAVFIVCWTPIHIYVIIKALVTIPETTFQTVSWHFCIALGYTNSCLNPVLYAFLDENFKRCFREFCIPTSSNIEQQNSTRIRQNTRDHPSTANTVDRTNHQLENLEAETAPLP
delta receptors, sequence (P41143 whole entry): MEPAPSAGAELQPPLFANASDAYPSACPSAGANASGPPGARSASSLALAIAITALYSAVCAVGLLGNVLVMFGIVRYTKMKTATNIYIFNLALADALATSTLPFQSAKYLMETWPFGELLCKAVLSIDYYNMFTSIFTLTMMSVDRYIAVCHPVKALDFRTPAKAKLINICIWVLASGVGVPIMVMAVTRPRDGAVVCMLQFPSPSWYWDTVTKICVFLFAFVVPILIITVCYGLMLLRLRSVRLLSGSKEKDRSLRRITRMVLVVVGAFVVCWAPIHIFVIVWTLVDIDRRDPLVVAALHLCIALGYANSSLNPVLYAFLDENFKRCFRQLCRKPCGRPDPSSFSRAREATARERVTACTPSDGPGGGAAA

## O=C1C(=Cc2ccccc2)C[C@@]2(O)[C@H]3Cc4ccc(O)c5c4[C@@]2(CCN3CC2CC2)[C@H]1O5 [BNTX, 7-benzylidenenaltrexone]
μ opioid receptor
  type of activity at the mu receptor: inverse agonist
Delta receptors
  type of activity at the delta receptor: inverse agonist

## O=C(O)Cc1ccccc1Nc1c(Cl)cccc1Cl [Diclofenac]
Human osteoblasts
  concentration giving a significant decrease of cell proliferation: 6 micrograms/ml
[1]
  therapeutic concentration in serum: approximately 1.5 micrograms/ml

## COc1cccc(C2(O)CCCCC2CN(C)C)c1 (centres unmarked) [Tramadol]
Human osteoblasts
  concentration giving a significant decrease of cell proliferation: greater than 20 micrograms/ml
[1]
  therapeutic concentration in serum: 0.25 micrograms/ml

## CN1CC[C@]23c4c5ccc(O)c4O[C@H]2[C@@H](O)C=C[C@H]3[C@H]1C5 [morphine]
[2]; 6 days after sarcoma injection
  sarcoma-induced bone loss (radiograph rating) vs saline infusion: no difference between morphine or saline treated mice
[2]; 10 days and 12 days after sarcoma injection into the femur
  incidence of sarcoma-induced fracture vs saline infusion: doubled
[2]; 12 days after femoral sarcoma injection, sustained morphine infusion
  sarcoma-induced bone loss (radiograph rating) vs saline infusion: increased sarcoma-induced bone loss
[2]; in vivo
  tumor burden in vivo: did not alter
[2]; [4]
  sarcoma-induced pain: enhances sarcoma-induced pain
  time to fracture: accelerated time to fracture
Sarcoma cells
  tumor growth in vitro: did not alter
osteoclasts; control animals (no sarcoma)
  osteoclast TRAP staining vs saline: no difference in osteoclast staining
osteoclasts; sarcoma treated animals, sustained morphine infusion
  osteoclast TRAP staining vs saline infusion: increased sarcoma-induced upregulation of osteoclasts
IL-1β
  IL-1β within the bone: upregulated

## CTAP
[3]
  withdrawal elicited, compared with naloxone: significantly less withdrawal than naloxone
